Values quoted from earlier work in patent EP4302832A1, “PALBOCICLIB FORMULATION CONTAINING GLUCONO DELTA LACTONE” (Lotus Pharmaceutical Co., Ltd., priority 2022, dated 2024).
Where two headings read alike, the source gives them in different places.

Columns and labels:
[1] = low pH (2.1-4.5)

CC(=O)c1c(C)c2cnc(Nc3ccc(N4CCNCC4)cn3)nc2n(C2CCCC2)c1=O [Palbociclib, 6-acetyl-8-cyclopentyl-5-methyl-2-(5-piperazin-1-yl-pyridin-2-ylamino)-8H-pyrido[2,3-d]-pyrimidin-7-one]
pKa (the pyridine nitrogen): ~4.1
pKa (the secondary piperazine nitrogen): approximately 7.3
solubility [1]: water soluble
